Results taken from the supplement of paper PMC10307832.

Compound: CN(c1ncccc1CNc1nc(Nc2ccc3c(c2)CC(=O)N3)ncc1C(F)(F)F)S(C)(=O)=O + COc1cc2c(Oc3ccc(NC(=O)C4(C(=O)Nc5ccc(F)cc5)CC4)cc3F)ccnc2cc1OCCCN1CCOCC1 [Foretinib] (partner 0.25 µM)
Test: relative viability (nuclei count vs DMSO), 5 days (fraction); higher = more cells survive
In short: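 A single step with final 0.05% Triton X-100, 1% formaldehyde and 1 ug/ml Hoechst fixed the cells and stained nuclei 5 days after treatment. Lung cancer cell lines in 1536-well plates had been treated by pin tool the day after seeding with one drug alone or a fixed anchor-drug dose plus five library-drug doses (not always all listed) in √10 steps, and nuclei were counted on 4× images. Relative viability is the ratio of nuclei in treated wells to nuclei in vehicle wells, taken as the median of duplicate plates.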

Cell Line | relative viability (first compound 0.01 µM) | relative viability (first compound 0.03162 µM) | relative viability (first compound 0.1 µM) | relative viability (first compound 0.3162 µM) | relative viability (first compound 1 µM)
LCLC-97TM1 | 0.97 | 0.986 | 0.867 | 0.864 | 0.844
HARA | 1.06 | 0.864 | 0.905 | 0.871 | 0.664
HCC-78 | 0.543 | 0.571 | 0.533 | 0.562 | 0.514
NCI-H1666 | 0.977 | 0.874 | 0.851 | 0.976 | 0.843
NCI-H2347 | 0.612 | 0.992 | 1.1 | 0.555 | 0.616
NCI-H838 | 1.01 | 1.06 | 1.07 | 0.882 | 0.718
NCI-H2023 | 0.791 | 0.715 | 0.731 | 0.752 | 0.642
201T | 1.06 | 1.09 | 1.09 | 0.928 | 1.02
NCI-H1915 | 1.13 | 1.06 | 1.04 | 1.12 | 1.04
NCI-H2009 | 1.17 | 1.22 | 1.27 | 1.27 | 0.965
BEN | 0.815 | 0.608 | 0.618 | 0.587 | 0.845
PC-14 | 1.01 | 1.04 | 1.01 | 1.07 | 1
SK-MES-1 | 0.905 | 0.919 | 0.817 | 1.01 | 0.868
NCI-H727 | 0.836 | 0.873 | 0.932 | 1 | 0.891
NCI-H1355 | 0.937 | 1.01 | 1 | 0.884 | 0.907
NCI-H1975 | 0.962 | 0.984 | 0.959 | 0.84 | 0.929
LK-2 | 1.02 | 1.06 | 1.21 | 1.3 | 1.52
NCI-H661 | 1.01 | 1.04 | 0.989 | 0.993 | 0.92
HCC-366 | 0.899 | 0.925 | 0.942 | 0.982 | 0.781

Cell Line | relative viability (first compound 0.01 µM) | relative viability (first compound 0.03162 µM) | relative viability (first compound 0.1 µM) | relative viability (first compound 0.3162 µM) | relative viability (first compound 1 µM)
HOP-62 | 1.04 | 1.16 | 0.958 | 1.02 | 1.03
NCI-H1944 | 0.771 | 0.941 | 0.87 | 0.938 | 0.79
SW 1573 | 0.961 | 0.856 | 0.884 | 1.16 | 0.975
LU99A | 0.838 | 0.873 | 0.841 | 0.947 | 0.929
NCI-H647 | 1.18 | 1.04 | 1.14 | 1.1 | 1.22
A-427 | 1.04 | 1.18 | 1.01 | 1.16 | 1.07
COR-L 105 | 1 | 1.27 | 0.989 | 0.848 | 0.773
NCI-H441 | 0.974 | 1.14 | 0.999 | 1.17 | 0.761
NCI-H2126 | 1.34 | 1.13 | 1.06 | 1.19 | 1.08
EBC-1 | 0.107 | 0.119 | 0.102 | 0.105 | 0.0994
NCI-H460 | 1.1 | 1.09 | 0.892 | 1.02 | 0.972
SK-LU-1 | 0.823 | 0.845 | 0.712 | 0.815 | 0.61
SW 900 | 0.796 | 0.964 | 0.872 | 0.894 | 0.566
NCI-H322M | 1.05 | 1.09 | 0.986 | 1.21 | 1.31
EKVX | 0.815 | 0.924 | 1.15 | 0.741 | 0.802
NCI-H1734 | 0.93 | 0.911 | 0.796 | 0.828 | 0.712
ABC-1 | 1.11 | 1.2 | 1.01 | 0.92 | 0.936
NCI-H520 | 0.851 | 0.744 | 0.723 | 0.839 | 0.722
